Measurements reported in article PMC5156807, “Stabilized Polymer Micelles for the Development of IT-147, an Epothilone D Drug-Loaded Formulation” (Journal of Drug Delivery, 2016).
Read-outs that look alike come from different tables or passages of the source.

Legend:
[1] = intraperitoneal bolus, mouse tumor models; cited from earlier work
[2] = Stability of drug substance in pilot formulations (mass spectrometry); assay type: physicochemical
Description: Epothilones B and D were selected for encapsulation using triblock copolymers. […] This was not completely surprising as stability of epothilone B both in vitro and in vivo has been addressed in the literature. Epothilone D, the alkene derivative of epothilone B (also known as desoxy-epothilone B), was selected as the preferred drug substance for encapsulation due to increased stability in aqueous environments and pH fluctuations. A small library of triblock copolymers was used to conduct pilot formulations of epothilone D drug-loaded micelles, with the ultimate goal to select IT-147, the lead for development of an epothilone D encapsulated polymer micelle formulation. Five of the polymers chosen for the library contained stabilizing blocks comprised of hydroxamic acid functionalized poly(glutamic acid), and five of the polymers contained poly(cysteine) amino acid moieties as stabilizing blocks (Figure 2, Table 1). All polymers contained a 12 kDa PEG and a mixture of hydrophobic amino acids with D and L isomers in the core block. Pilot formulations were characterized by determining formulation efficiency, epothilone D drug loading (% w/w), average particle diameter, and retention of epothilone D following dialysis above and below the critical micelle concentration (Table 1).

[3] = Dialysis stability / pH-dependent release assay; assay type: physicochemical; details: 20 mg/mL, 3500 MWC, 10 mM phosphate buffer, 6 hours, room temperature; epothilone D retained
Protocol: Retention of the epothilone drug substance within the micelle formulation and the release profile of the drug substance over time, concentration, and pH were investigated using dialysis. Formulations were reconstituted at concentrations of 20 mg/mL and 0.2 mg/mL and placed in dialysis tubing with 3500 MWC pore size, which allows for retention of the micelles within the bag and release of the free drug from the bag into the reservoir. A volume of 3 mL of reconstituted formulation was placed into dialysis bags and then placed in a 300 mL reservoir containing 10 mM phosphate buffer and stirred for 6 hours at room temperature. HPLC assay for epothilone concentration of the formulation inside the bag was done before and after dialysis to determine the percentage of epothilone retained inside the dialysis bag over 6 hours. pH-dependent release was performed using 10 mM phosphate buffer at pH 3, 4, 5, 6, 7, 7.4, and 8 in the reservoirs during dialysis.

[4] = Pilot toxicokinetic dose range-finding study in cannulated rat model; assay type: in vivo, Sprague-Dawley rats; details: for Dose limiting Toxicities / average weight loss: rat, 20 mg/kg; for Dose limiting Toxicities: w.l. = weight loss; for average weight loss: four days
Protocol: The lead hydroxamic acid and cysteine containing formulations were compared to free epothilone D using a cannulated rat model by administering a 10 mg/kg dose by fast bolus to the jugular vein catheter. Female, Sprague-Dawley rats surgically modified with jugular vein catheters exteriorized posteriorly were purchased from Harlan Labs. Catheters were flushed and maintained with heparinized saline to ensure patency over the study period. The catheter port was used for both test article administration and blood collection. IT-147 pharmacokinetics at 20, 30, and 40 mg/kg were compared to epothilone D free drug at 20 mg/kg in the cannulated rat model. IT-147 was reconstituted in saline, while epothilone D free drug was reconstituted in cremaphor : ethanol : saline at 1 : 1 : 4 ratio. All in vivo studies were conducted under Institutional Guidelines. The Institutional Animal Care and Use Committee (IACUC), at the University of South Florida (USF), approved all rat in vivo study protocols. Animals were maintained and evaluated under pathogen-free conditions in accordance with USF College of Medicine IACUC standards of care. Approximately 300 μL of blood was collected into K2EDTA tubes containing PMSF (final concentration 2.5 mM) at time points of 1, 5, 15, and 60 minutes after test article administration. Samples were centrifuged at 2000 RPM for 5 minutes to isolate plasma. Plasma was aliquoted into microcentrifuge tubes and frozen at −20°C until processed for HPLC/UV analysis. The following bioanalytical method is a modification of the procedure originally developed by Yuan et al.. Bioanalytical sample preparation was performed by liquid : liquid extraction. 50 μL of plasma sample was added to 600 μL of n-butyl chloride and vortexed for 10 minutes. Samples were centrifuged at 10,000 RPM for 10 minutes and the organic supernatant was aliquoted into microcentrifuge tubes. The n-butyl chloride supernatant was evaporated to dryness using a turbovap with nitrogen flow at room temperature, and 75 μL of a 40% acetonitrile in water solution was added to each tube. Samples were then vortexed for 5 minutes, aliquoted into HPLC vials, and processed using HPLC methodology as described in Section 2.3. Blank rat plasma containing PMSF was used to spike in epothilone D for standard curve preparation and processed as described for the plasma samples to determine concentration of epothilone D isolated from the samples collected from the cannulated rats. Noncompartmental analysis of the pharmacokinetic data was done using Phoenix WinNonlin version 6.3.
A pilot dose range-finding toxicokinetic study in a cannulated rat model was performed to support future full scale toxicokinetic studies of IT-147. Doses of IT-147 at 20, 30 and 40 mg/kg were compared to epothilone D free drug at 20 mg/kg (Table 3, Figure 7) followed by monitoring of animal weight change, gross signs of clinical toxicity, and limited plasma sampling for pharmacokinetic analysis (Table 4). IT-147 was reconstituted in saline while epothilone D free drug was administered in a cremaphor : ethanol : saline mixture. Test articles were given by fast bolus to the rat jugular vein, and blood was collected at time points of 1 minute, 5 minutes, 15 minutes, 1 hour, 2 hours, 4 hours, and 6 hours. […] Samples collected after the 1-hour time point were below the limit of quantitation for analysis. […] It was concluded that 20 mg/kg epothilone D free drug was above the maximum tolerated dose for these animals. […] Animals were monitored for one week following test article administration. […] Animals were monitored for four days after test article administration and were euthanized on the fourth day due to welfare concerns. […] It was concluded that 40 mg/kg epothilone D from IT-147 was above the maximum tolerated dose for these animals.

[5] = Plasma pharmacokinetic screening of pilot formulations in cannulated rat model; assay type: in vivo, Sprague-Dawley rats; details: rat plasma epothilone D, 10 mg/kg fast bolus jugular vein catheter
Protocol: The lead hydroxamic acid and cysteine containing formulations were compared to free epothilone D using a cannulated rat model by administering a 10 mg/kg dose by fast bolus to the jugular vein catheter. Female, Sprague-Dawley rats surgically modified with jugular vein catheters exteriorized posteriorly were purchased from Harlan Labs. Catheters were flushed and maintained with heparinized saline to ensure patency over the study period. The catheter port was used for both test article administration and blood collection. IT-147 pharmacokinetics at 20, 30, and 40 mg/kg were compared to epothilone D free drug at 20 mg/kg in the cannulated rat model. IT-147 was reconstituted in saline, while epothilone D free drug was reconstituted in cremaphor : ethanol : saline at 1 : 1 : 4 ratio. All in vivo studies were conducted under Institutional Guidelines. The Institutional Animal Care and Use Committee (IACUC), at the University of South Florida (USF), approved all rat in vivo study protocols. Animals were maintained and evaluated under pathogen-free conditions in accordance with USF College of Medicine IACUC standards of care. Approximately 300 μL of blood was collected into K2EDTA tubes containing PMSF (final concentration 2.5 mM) at time points of 1, 5, 15, and 60 minutes after test article administration. Samples were centrifuged at 2000 RPM for 5 minutes to isolate plasma. Plasma was aliquoted into microcentrifuge tubes and frozen at −20°C until processed for HPLC/UV analysis. […]
Stability of polymer micelles to dilution is one of the most important physiochemical characteristics for a formulation to be successful in vivo. […] The top two candidates from the pilot epothilone D formulations were evaluated, along with epothilone D free drug, using a cannulated rat model for pharmacokinetics. Selection of the lead epothilone D formulation, termed IT-147, was determined from the exposure of epothilone D to the plasma compartment by calculating the area under the concentration versus time curve (AUC) and maximum concentration (C max). […]

[6] = female, Sprague-Dawley, iv, rat plasma, 20 mg/kg epothilone D equivalent, fast bolus jugular vein

| SMILES | LD50 [1] | maximum tolerated dose [1] | stability of the drug substance (epoxide ring) under formulation conditions [2] | Dialysis > CMC (% remaining) [3] | maximum tolerated dose ([4]; cannulated rat, single fast bolus, epothilone D equivalent, listed as epothilone D free drug) | Cmax [4, 6] | clearance [4, 6] | half-life ([4]; female, Sprague-Dawley, iv, terminal, rat plasma, 20 mg/kg epothilone D equivalent, fast bolus jugular vein) | AUC(0–6 h) ([4]; rat plasma, 20 mg/kg epothilone D equivalent, fast bolus jugular vein) | Dose limiting Toxicities ([4]; 20 mg/kg epothilone D equivalent, listed as Epo D) | Dose limiting Toxicities ([4]; 20 mg/kg epothilone D equivalent, listed as Epothilone D free drug) | Dose limiting Toxicities ([4]; 20 mg/kg epothilone D equivalent, listed as epothilone D free drug) | average weight loss ([4]; listed as Epothilone D free drug) | average weight loss ([4]; listed as epothilone D free drug) | concentration at 60 min ([5]; female, Sprague-Dawley, intravenous, 60 minutes, read-out: Clast) | Cmax ([5]; female, Sprague-Dawley, intravenous, at 1 minute) | AUC(0-1 h) [5] |
| --- | --- | --- | --- | --- | --- | --- | --- | --- | --- | --- | --- | --- | --- | --- | --- | --- | --- |
| C/C(=C\c1csc(C)n1)[C@@H]1C[C@@H]2O[C@]2(C)CCC[C@H](C)[C@H](O)[C@@H](C)C(=O)C(C)(C)[C@@H](O)CC(=O)O1 [epothilone B] | 0.6 mg/kg | 0.3 mg/kg | unstable to all experimental formulation conditions |  |  |  |  |  |  |  |  |  |  |  |  |  |  |
| C/C1=C/C[C@@H](/C(C)=C/c2csc(C)n2)OC(=O)C[C@H](O)C(C)(C)C(=O)[C@H](C)[C@@H](O)[C@@H](C)CCC1 [epothilone D] |  | 25 mg/kg |  | 15% | < 20 mg/kg | 32200 ng/mL | 40.2 mL/min/kg | 18 min | 8.3 h∗µg/mL | >10% w.l. lethargy impaired gait orbital-bleeding | lethargy, impaired gait, orbital bleeding, porphyrin accumulation around the face, and disheveled fur | lethargy, gait impairment, and retro-orbital bleeding | 12% | greater than 10% | 1600 ± 800 ng/mL | 19700 ± 4100 ng/mL | 5.2 h∗µg/mL |
